Source: US20230322756A1, “FUSED IMIDAZOLE DERIVATIVE, PREPARATION METHOD THEREFOR, AND MEDICAL USE THEREOF” (JIANGSU HENGRUI MEDICINE CO., LTD., priority 2020, published 2023)

What was measured:
CYP2C19 = CYP2C19 (Homo sapiens (Human), UniProt P33261); test: Time-dependent inhibition (TDI) of CYP2C19 (S)-mephenytoin site of metabolism in human liver microsomes; type: in vitro ADME; conditions: for IC50: (S)-mephenytoin
Procedure: I. Materials and Instruments • 1. Phosphate buffered saline (20×PBS, purchased from Sangon); • 2. NADPH (ACROS, A2646-71-1); • 3. Human liver microsome (Corning Gentest, Cat No. 452161, Lot No. 905002, Donor36); • 4. ABI QTrap 4000 LC-MS System (AB Sciex); • 5. ZORBAX Extend-C18, 3×50 mm, 3.5 μm (Agilent, USA); • 6. CYP probe substrate ((S)-mephenytoin/20 μM, powder purchased from J&K Scientific Ltd., Cat No. 303768) and positive control inhibitor (ticlopidine, powder purchased from SIGMA, Cat No. T6654-1G).
A 100 mM PBS buffer was prepared. A 15 mM MgCl2 solution and a 10 mM NADPH solution were prepared using the buffer. A 0.5 mg/mL microsome solution was prepared using the 15 mM MgCl2 solution. A 30 mM stock solution was diluted with DMSO to a series of solutions I with concentrations of 30 mM, 10 mM, 3 mM, 1 mM, 0.3 mM, 0.1 mM, 0.03 mM and 0 mM, which were then 10-fold diluted with acetonitrile (ACN) and finally 50-fold diluted with phosphate-buffered solution (PBS) to obtain a series of test working solutions II (60 μM, 20 μM, 6 μM, 2 μM, 0.6 μM, 0.2 μM, 0.06 μM and 0 μM). A 20 μM working solution of (S)-mephenytoin was prepared by dilution with PBS.
The above prepared series of working solutions were well shaken and divided into 50 μL aliquots in corresponding reaction plates (+NADPH group and −NADPH group were set) in triplicate. 20 μL of the liver microsome working solution was added to each 96-well plate. 10 μL of NADPH was added to +NADPH group. The plates were incubated in a water bath at 37° C., and a timer was set on the incubation. After 30 min of incubation, the plates were taken out, and +NADPH group was supplemented with 20 μL of corresponding substrate solutions and −NADPH group with 20 μL of corresponding substrate solutions and 10 μL of NADPH. The plates were incubated in a water bath at 37° C., and a timer was set on the incubation. After 30 min of incubation, the plates were taken out, and the reactions were terminated with 250 μL of an ACN solution containing an internal standard. The plates were shaken on a shaker at 800 rpm for 10 min and centrifuged on a centrifuge at 4000 rpm for 15 min. 100 μL of supernatant and 80 μL of ultrapure water were well mixed and subjected to LC-MS/MS analysis.

[1] = Pharmacokinetic evaluation in mice; type: in vivo, C57 mice; conditions: for AUC(0-t) / half-life / Vd/F / CL/F / Cmax: female, C57, mouse, plasma; for AUC(0-t): read-out: Area under curve AUC0-t; for half-life: read-out: Half-life T½ (converted); for Vd/F: read-out: Apparent distribution volume Vz/F; for CL/F: read-out: Clearance CLz/F; for Cmax: read-out: Plasma concentration Cmax
Procedure: The drug concentrations in the plasma of the test animals (mice) at different time points after intragastric (ig) administration/intravenous (iv) injection of the compounds of the present disclosure were determined by an LC/MS/MS method. The pharmacokinetic behavior of the compound of the present disclosure in mice was studied and its pharmacokinetic profile was evaluated.
Thirty-six C57 mice, female, evenly divided into 4 groups, purchased from Beijing Vital River Laboratory Animal Technology Co., Ltd., with animal production license number: SCXK (Shanghai) 2017-0005.
Intragastric administration: the drugs were intragastrically administered to mice at a dose of 2.0 mg/kg and a volume of 20.0 mL/kg.
Intravenous injection administration: the drugs were administered to mice by intravenous injection at a dose of 1.0 mg/kg and a volume of 10.0 mL/kg.
The blood was placed in an EDTA-K2 anticoagulation tube and centrifuged at 10,000 rpm for 1 min (4° C.), and plasma was separated out within 1 h and then stored at −80° C. before being tested. The process from blood collection to centrifugation was performed under an ice bath.
(§1) The content of the test compounds at different concentrations in plasma of mice after the administration was determined: 25 μL of plasma of mice at each time point after the administration was mixed with 200 μL of acetonitrile (containing 50 μL of a solution of internal standard camptothecin (100 ng/mL)); the mixture was vortexed for 1 min, and centrifuged for 10 min (4000 r/min), and 0.5 μL of supernatant was taken for LC/MS/MS analysis.

[2] = Pharmacokinetic evaluation in dogs; type: in vivo; conditions: beagle dogs; for Vd/F / AUC(0-t) / CL/F / half-life / Cmax: male, dog, plasma; for Vd/F: read-out: Apparent distribution volume Vz/F; for AUC(0-t): read-out: Area under curve AUC0-t; for CL/F: read-out: Clearance CLz/F; for half-life: read-out: Half-life T½ (converted); for Cmax: read-out: Plasma concentration Cmax
Procedure: Dogs are the test animals. The drug concentrations in the plasma of dogs at different time points after intragastric (ig) administration/intravenous (iv) injection of the compounds of the present disclosure were determined by an LC/MS/MS method. The pharmacokinetic performance in beagles of the compounds of the present disclosure was studied and the pharmacokinetic profile thereof was evaluated.
Twelve beagle dogs, males, evenly divided into 4 groups, provided by the animal reserve bank (999M-004) of Shanghai Medicilon Inc. All animals were beagle dogs qualified for physical examination and healthy without abnormalities.
Intragastric administration: the dose was 2 mg/kg and the volume was 50.0 mL/kg.
Intravenous injection administration: the dose was 0.5 mg/kg and the volume was 20.0 mL/kg.
The blood was placed in an EDTA-K2 anticoagulation tube and centrifuged at 10,000 rpm for 5 min (4° C.), and plasma was separated out within 1 h and then stored at −80° C. before being tested. Food intake was resumed 3 h after administration.
The process from blood collection to centrifugation was performed under an ice bath.
as §1, with “of beagle dogs” for “of mice”, “determined: 10” for “determined: 25”, “(containing” for “(containing 50 μL of”, “for 7” for “for 10”, “min (18,000” for “min (4000”, “and 6” for “and 0.5”

[3] = 30 min pre-incubation with NADPH
[4] = 30 min pre-incubation without NADPH
[5] = po, intragastric administration, 2 mg/kg
[6] = intravenous injection, 0.5 mg/kg

Chain of CYP2C19 (P33261 whole entry): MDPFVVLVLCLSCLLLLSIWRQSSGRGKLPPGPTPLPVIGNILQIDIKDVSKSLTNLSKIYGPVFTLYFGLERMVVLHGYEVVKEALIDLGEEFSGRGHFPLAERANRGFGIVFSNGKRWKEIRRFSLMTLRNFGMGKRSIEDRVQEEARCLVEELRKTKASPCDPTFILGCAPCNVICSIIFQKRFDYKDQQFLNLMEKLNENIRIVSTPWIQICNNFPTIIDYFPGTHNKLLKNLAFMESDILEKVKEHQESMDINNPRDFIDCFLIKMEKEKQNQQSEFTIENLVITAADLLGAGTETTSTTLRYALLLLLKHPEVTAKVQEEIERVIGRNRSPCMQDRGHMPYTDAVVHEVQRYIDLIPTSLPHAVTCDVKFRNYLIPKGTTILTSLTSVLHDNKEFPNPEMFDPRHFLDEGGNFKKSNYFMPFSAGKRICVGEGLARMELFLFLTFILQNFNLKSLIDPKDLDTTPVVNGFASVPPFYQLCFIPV

SMILES	IC50 (CYP2C19; [3])	IC50 (CYP2C19; [4])	AUC(0-t) ([1]; intravenous injection, 1 mg/kg)	half-life ([1]; intravenous injection, 1 mg/kg)	Vd/F [1, 5]	AUC(0-t) [1, 5]	CL/F [1, 5]	half-life [1, 5]	Cmax [1, 5]	Apparent distribution volume Vz/F ([1]; intravenous injection, 1 mg/kg)	Clearance CLz/F ([1]; intravenous injection, 1 mg/kg)	Apparent distribution volume Vz/F [2, 6]	Clearance CLz/F [2, 6]	Vd/F [2, 5]	AUC(0-t) [2, 5]	CL/F [2, 5]	half-life [2, 5]	Cmax [2, 5]	AUC(0-t) [2, 6]	half-life [2, 6]	further results
C[C@]1(c2ccc(Cl)cc2F)Oc2cccc(C3CCN(Cc4nc5ccc(C(=O)O)cc5n4C[C@@H]4CCO4)CC3)c2O1 [Positive compound 1, reference compound]	2.6 µM	6.4 µM																			IC50 shift at 30 min (CYP2C19; probe (S)-mephenytoin, CYP2C19 (S)-mephenytoin site, read-out: IC50 shift fold): 2.5
O=C(O)c1ccc2nc(CN3CCC(c4cccc5c4O[C@@H](c4ccc(Cl)cc4F)CO5)CC3)n(C[C@@H]3CCO3)c2c1 [Example 4, 2-((4-((S)-3-(4-Chloro-2-fluorophenyl)-2,3-dihydrobenzo[b][1,4]dioxan-5-yl)piperidin-1-yl)methyl)-1-(((S)-oxetan-2-yl)methyl)-1H-benzo[d]imidazole-6-carboxylic acid]	> 30 µM	> 30 µM	1870 ng·h/mL	1.3 h	4.01 L/kg	2250 ng·h/mL	14.8 mL/min/kg	3.1 h	797 ng/mL	1.014 L/kg	8.9 mL/min/kg	0.908 L/kg	1.9 mL/min/kg	0.713 L/kg	21400 ng·h/mL	1.6 mL/min/kg	5.3 h	4040 ng/mL	4010 ng·h/mL	5.4 h	Cmax [2, 6]: 1220 ng/mL
O=C(O)c1ccc2nc(CN3CCC(c4cccc5c4O[C@@H](c4ccc(Cl)cc4F)CO5)CC3)n(C[C@@H]3CCO3)c2n1 [Example 5, 2-((4-((S)-3-(4-Chloro-2-fluorophenyl)-2,3-dihydrobenzo[b][1,4]dioxan-5-yl)piperidin-1-yl)methyl)-3-((S)-oxetan-2-ylmethyl)-3H-imidazo[4,5-b]pyridine-5-carboxylic acid]			2190 ng·h/mL	1.5 h	5.76 L/kg	1440 ng·h/mL	23.1 mL/min/kg	2.9 h	359 ng/mL	0.981 L/kg	7.55 mL/min/kg	0.448 L/kg	1.8 mL/min/kg	0.636 L/kg	22100 ng·h/mL	1.7 mL/min/kg	4.9 h	4430 ng/mL	4830 ng·h/mL	3 h	Cmax [2, 6]: 1740 ng/mL
